Usually EC50 stands for the concentration that produces a half-maximal response. As usually defined, the Emax is the greatest response seen or fitted, relative to the assay's reference.

One data set relates to C57BL/6J mice. The data set can be described thus: Biotelemetry and head-twitch response (HTR) experiments. The note with it: male C57BL/6 mice, SC, several doses (0.03 to 30 mg/kg). Format: in vivo, mice (C57BL/6J males). An excerpt:
Mice (C57BL/6J males) were purchased from the Jackson Laboratory (Bar Harbor, ME, USA) at 5-6 weeks of age and allowed at least 1-2 weeks to acclimate to the NIDA, Intramural Research Program (IRP), animal research facility in Baltimore, MD, USA. The animal facility is fully accredited by the Association for the Assessment and Accreditation of Laboratory Animal Care, and all procedures were approved by the NIDA IRP Animal Care and Use Committee. Mice were initially group housed 3-5 per cage during acclimation and housed in a 12 h light-dark cycle throughout the study, with lights on at 0700 h. Food and water were available ad libitum except during testing. Cohorts of 20-24 mice were used for each test drug. The mice were subjected to experimental testing once every 1-2 weeks for 2-3 months to complete dose-effect curves and antagonist experiments. A minimum of 7 days between treatments was utilized to avoid any tolerance to effects of repeated drug administration. All drug doses represent the weight of the salt dissolved in 0.9% saline vehicle. Mice were tested first in dose-response studies to assess the effects of each compound at doses from 0.03 to 30 mg/kg s.c. and were subsequently tested in antagonist reversal studies utilizing pretreatment with M100907 and WAY100635. All experiments were conducted from 0900 to 1700 local time during the light phase, as sensitivity of rodents to other tryptamine psychedelics is diurnal, with maximal HTR observed in the middle of the light phase. […]
Subcutaneous Temperature Transponder Implants. […] Temperature was determined noninvasively using a handheld receiver that is sensitive to signals emitted from the implanted transponders.
Prior to each experiment, mouse body weight and temperature were recorded. […] In dose-response studies, after a brief 5 min acclimation, mouse body temperature was recorded for baseline measurement, mice received s.c. injection of test substance or vehicle, and animals were returned to the testing arena for 30 min. During the session, locomotor activity was monitored via photobeam tracking of movements in the horizontal plane to yield distance traveled in centimeter. HTR was monitored by the analysis of GoPro Hero Black 7 video recordings (120 frames per see and 960p resolution) using a commercially available software package from Clever Sys Inc. (Reston, VA, USA).82 Post-treatment body temperature values were also recorded, and temperature data are represented as change from pretreatment baseline.
In antagonist reversal experiments, mice received a s.c. injection of either receptor antagonists or vehicle and were returned to the testing chamber for 30 min. During this period, locomotor activity was monitored to examine the potential effects of antagonist treatment on general behavior or movement. […]

The target of the next data set is T1, 5-HT2A receptor (Homo sapiens, UniProt P28223).
T1 construct: host or cells: HEK293
T1 sequence (P28223 whole entry): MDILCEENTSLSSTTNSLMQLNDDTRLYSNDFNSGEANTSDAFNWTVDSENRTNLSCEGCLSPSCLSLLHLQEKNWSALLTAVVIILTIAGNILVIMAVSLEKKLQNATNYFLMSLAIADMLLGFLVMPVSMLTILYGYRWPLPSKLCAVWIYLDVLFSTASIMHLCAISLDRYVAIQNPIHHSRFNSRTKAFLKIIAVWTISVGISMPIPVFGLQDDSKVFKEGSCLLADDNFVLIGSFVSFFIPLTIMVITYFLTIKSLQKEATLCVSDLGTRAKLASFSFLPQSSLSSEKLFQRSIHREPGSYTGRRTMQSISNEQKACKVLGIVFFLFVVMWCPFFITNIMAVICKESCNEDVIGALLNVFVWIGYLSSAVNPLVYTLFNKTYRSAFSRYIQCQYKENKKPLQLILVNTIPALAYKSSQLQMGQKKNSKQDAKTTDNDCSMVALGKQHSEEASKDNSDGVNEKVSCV
The data set can be described thus: FLIPR Ca2+ flux functional assay, agonist activity at 5-HT2A. It counts as cell-based. To be noted: stably transfected HEK293 cells. The protocol: (§1) Functional assays 5-HT2A, 5-HT2B and 5-HT2C Receptors
(§2) Activity at 5-HT2A, 5-HT2B and 5-HT2C receptors was determined using a FLIPR Ca2+ flux assay at WuXi AppTec Co. Ltd. (Hong Kong) Discovery Biology Unit according to their standard protocols. Briefly, stably transfected cells expressing the receptor of interest (HEK293 for 5-HT2A and 5-HT2C; CHO-K1 for 5-HT2B) were grown and plated in a 384 well plate and incubated at 37° C. and 5% CO2 overnight. A 250 mM stock solution of probenecid in FLIPR calcium assay buffer (10 mL) was freshly prepared and combined with a fluorescent dye (Fluo-4 Direct) to give a final assay concentration of 2.5 mM. Reference compounds were 4-fold serially diluted and the screening compounds were 3-fold serially diluted in 100% DMSO for 10 points using Agilent Bravo, and 750 nL was added to a 384 well compound plate using Echo along with 30 μL assay buffer. The fluorescent dye was then added to the assay plate along with assay buffer to a final volume of 40 μL. The cell plate was incubated for 50 min at 37° C. and 5% CO2 and placed into the FLIPR Tetra along with the compound plate. 10 μL of references and compounds were then transferred from the compound plate into the cell plate and the fluorescent signal was read.
On the technique in general: Calcium assays in cells follow changes in intracellular calcium, usually with a dye or a luminescent sensor.

For the next data set, the target named is T2, 5-HT2C receptor (Homo sapiens, UniProt P28335).
T2 construct: host or cells: HEK293
T2 sequence (P28335 33-458): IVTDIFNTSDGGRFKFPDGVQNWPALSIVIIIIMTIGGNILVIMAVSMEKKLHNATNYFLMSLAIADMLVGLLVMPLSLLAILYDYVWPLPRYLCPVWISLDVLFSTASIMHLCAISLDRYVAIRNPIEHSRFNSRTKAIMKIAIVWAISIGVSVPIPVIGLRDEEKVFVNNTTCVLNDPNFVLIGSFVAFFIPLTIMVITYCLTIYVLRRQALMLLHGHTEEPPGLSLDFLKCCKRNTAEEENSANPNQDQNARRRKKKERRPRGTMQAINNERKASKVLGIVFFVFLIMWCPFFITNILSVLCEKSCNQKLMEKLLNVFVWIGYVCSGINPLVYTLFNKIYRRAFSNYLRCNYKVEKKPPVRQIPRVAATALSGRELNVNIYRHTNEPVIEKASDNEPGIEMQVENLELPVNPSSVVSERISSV
The data set can be described thus: FLIPR Ca2+ flux functional assay, agonist activity at 5-HT2C. Format: cell-based. To be noted: stably transfected HEK293 cells. The protocol: as §1, §2

A further data set has as its target T3, 5-HT2B receptor (Homo sapiens, UniProt P41595).
T3 construct: host or cells: CHO-K1
The data set can be described thus: 5-HT2B activation in a similar assay at a single 10 μM concentration. Format: cell-based. The protocol:
Activation data are provided in a similar assay tested at a single 10 μM concentration.

A value given as a limit tells only on which side of the number the result lay.

T3 sequence (P41595 whole entry): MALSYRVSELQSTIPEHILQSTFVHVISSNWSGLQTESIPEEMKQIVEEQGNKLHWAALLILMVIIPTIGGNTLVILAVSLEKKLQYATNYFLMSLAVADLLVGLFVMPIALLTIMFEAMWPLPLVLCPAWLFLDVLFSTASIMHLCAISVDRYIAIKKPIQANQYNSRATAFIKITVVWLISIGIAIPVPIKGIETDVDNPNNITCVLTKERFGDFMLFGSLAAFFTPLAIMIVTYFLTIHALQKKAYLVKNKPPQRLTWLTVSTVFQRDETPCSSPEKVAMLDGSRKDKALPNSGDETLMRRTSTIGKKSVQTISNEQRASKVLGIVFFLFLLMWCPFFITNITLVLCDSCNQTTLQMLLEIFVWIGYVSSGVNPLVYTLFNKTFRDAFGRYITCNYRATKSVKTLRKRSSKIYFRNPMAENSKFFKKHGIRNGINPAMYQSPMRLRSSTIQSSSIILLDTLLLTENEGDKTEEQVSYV

Take `COc1ccnc2[nH]cc(CCN(C)C)c12` [Compound P-4, 2-(4-methoxy-1H-pyrrolo[2,3-b]pyridin-3-yl)-N,N-dimethylethan-1-amine]: in the data set on C57BL/6J mice, the “Head-twitch response (HTR)” value is listed as “not promoting increased head-twitch response” and the “Tolerability (temperature, locomotor activity, HTR; FIGS. 2-5)” value is given as “well-tolerated”.

For `CCN(C)CCc1c[nH]c2ncc(C#N)cc12` [Compound S66, 3-(2-(ethyl(methyl)amino)ethyl)-1H-pyrrolo[2,3-b]pyridine-5-carbonitrile], at 5-HT2A receptor, a half-maximal effect (EC50) was put at 1170 nM and the Emax was determined as 65%. On 5-HT2C receptor, this molecule showed an EC50 greater than 10 µM and an Emax of 1%. Moreover, the “5-HT2B % Activation @ 10 μM” value on 5-HT2B receptor was 0%.

With `CC(C)N(C)CCc1c[nH]c2ncc(C#N)cc12` [Compound S67, 3-(2-(isopropyl(methyl)amino)ethyl)-1H-pyrrolo[2,3-b]pyridine-5-carbonitrile], at 5-HT2A receptor, the EC50 amounted to 609 nM and the Emax worked out at 80%. Also, on 5-HT2C receptor, the EC50 is greater than 10 µM and the Emax turned out to be 2%. Further, the “5-HT2B % Activation @ 10 μM” value on 5-HT2B receptor turned out to be 4%.

For the molecule `CN(CCc1c[nH]c2ncc(C#N)cc12)C1CC1` [Compound S68, 3-(2-(cyclopropyl(methyl)amino)ethyl)-1H-pyrrolo[2,3-b]pyridine-5-carbonitrile], the values for the EC50 at 5-HT2A receptor and at 5-HT2C receptor were 566 nM and 4.57 µM, respectively. Besides, the Emax at 5-HT2A receptor amounted to 70%; at 5-HT2C receptor, 44%. For the same molecule, at 5-HT2B receptor, the “5-HT2B % Activation @ 10 μM” value stood at 11%.

On to `N#Cc1cnc2[nH]cc(CCN3CCCC3)c2c1` [Compound S69, 3-(2-(pyrrolidin-1-yl)ethyl)-1H-pyrrolo[2,3-b]pyridine-5-carbonitrile], for which, at 5-HT2A receptor, the EC50 amounted to 1470 nM and the Emax is 86%. On 5-HT2C receptor, this molecule gave an EC50 greater than 10 µM and an Emax of 0%. For the same molecule, the “5-HT2B % Activation @ 10 μM” value on 5-HT2B receptor came out at 0%.

`N#Cc1cnc2[nH]cc(CCN3CCC3)c2c1` [Compound S70, 3-(2-(azetidin-1-yl)ethyl)-1H-pyrrolo[2,3-b]pyridine-5-carbonitrile]: the concentration for a half-maximal effect (EC50) at 5-HT2A receptor is 681 nM; at 5-HT2C receptor it was greater than 10 µM. Also, the figures for the Emax on 5-HT2A receptor and at 5-HT2C receptor were 78% and 16%, respectively. Moreover, the “5-HT2B % Activation @ 10 μM” value at 5-HT2B receptor was found to be 0%.

Turning to `CC1CCN1CCc1c[nH]c2ncc(C#N)cc12` (stereo not shown) [Compound S71, 3-(2-(2-methylazetidin-1-yl)ethyl)-1H-pyrrolo[2,3-b]pyridine-5-carbonitrile], at 5-HT2A receptor, the EC50 is 1140 nM and the maximum response (Emax) was found to be 81%. On 5-HT2C receptor, this molecule came in with an EC50 greater than 10 µM and an Emax of 9%. Besides, the “5-HT2B % Activation @ 10 μM” value at 5-HT2B receptor was 0%.

Consider `N#Cc1cnc2[nH]cc(CCNCc3ccccc3F)c2c1` [Compound S72, 3-(2-((2-fluorobenzyl)amino)ethyl)-1H-pyrrolo[2,3-b]pyridine-5-carbonitrile], for which, at 5-HT2A receptor, the EC50 was determined as 179 nM and the Emax came to 70%. Further, on 5-HT2C receptor, the EC50 worked out at 5.07 µM and the maximum response (Emax) worked out at 47%. In addition, the “5-HT2B % Activation @ 10 μM” value at 5-HT2B receptor is given as 0%.

`N#Cc1cnc2[nH]cc(CCNCc3cccc(F)c3)c2c1` [Compound S73, 3-(2-((3-fluorobenzyl)amino)ethyl)-1H-pyrrolo[2,3-b]pyridine-5-carbonitrile]: at 5-HT2A receptor, a half-maximal effect (EC50) was put at 134 nM and the maximal response (Emax) was 66%. On 5-HT2C receptor, the EC50 turned out to be 7.43 µM and the maximum response (Emax) worked out at 43%. Further, the “5-HT2B % Activation @ 10 μM” value on 5-HT2B receptor was 2%.

On to `COc1ccccc1CNCCc1c[nH]c2ncc(C#N)cc12` [Compound S74, 3-(2-((2-methoxybenzyl)amino)ethyl)-1H-pyrrolo[2,3-b]pyridine-5-carbonitrile], for which, at 5-HT2A receptor, the EC50 was determined as 7.7 nM and the Emax was 93%. At 5-HT2C receptor, this molecule gave an EC50 of 1.88 µM and an Emax of 88%. Besides, at 5-HT2B receptor, the “5-HT2B % Activation @ 10 μM” value was determined as 15%.

At 5-HT2A receptor, `COc1cccc(CNCCc2c[nH]c3ncc(C#N)cc23)c1` [Compound S75, 3-(2-((3-methoxybenzyl)amino)ethyl)-1H-pyrrolo[2,3-b]pyridine-5-carbonitrile] showed an EC50 of 44.4 nM and an Emax of 79%. At 5-HT2C receptor, this molecule registered an EC50 of 3.62 µM and an Emax of 46%. Further, at 5-HT2B receptor, the “5-HT2B % Activation @ 10 μM” value came to 1%.

The values above are taken from patent US20250361233A1, “Compounds For Activating Serotonin Receptor” (PSYLO PTY LTD, priority 2023, published 2025).
